In patent publication US20260184707A1, “PHARMACEUTICAL COMPOUNDS FOR THE TREATMENT OF COMPLEMENT MEDIATED DISORDERS” (ALEXION PHARMACEUTICALS, INC., priority 2022, published 2026) one finds IC50 data, which are given here for 22 compounds.

Some results are limits rather than exact numbers.

Usually IC50 stands for the concentration needed to halve the response being measured.

This assay concerns the target T1, Human complement C1s enzyme (Homo sapiens, UniProt P09871).
T1 construct: purified from human serum, Complement Technology, Inc; purchased Complement Technology, Inc; host or cells: human serum (plasma-derived native protein)
T1 sequence (P09871 438-688 limits assumed): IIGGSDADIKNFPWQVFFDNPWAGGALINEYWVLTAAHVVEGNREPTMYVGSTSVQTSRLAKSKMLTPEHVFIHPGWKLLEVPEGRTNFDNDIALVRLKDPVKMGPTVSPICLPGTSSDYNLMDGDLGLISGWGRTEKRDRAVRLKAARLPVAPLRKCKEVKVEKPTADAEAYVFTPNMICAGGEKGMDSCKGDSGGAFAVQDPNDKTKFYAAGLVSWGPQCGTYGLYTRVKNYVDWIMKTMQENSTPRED
T1 sequence (P09871 16-437 partner limits assumed): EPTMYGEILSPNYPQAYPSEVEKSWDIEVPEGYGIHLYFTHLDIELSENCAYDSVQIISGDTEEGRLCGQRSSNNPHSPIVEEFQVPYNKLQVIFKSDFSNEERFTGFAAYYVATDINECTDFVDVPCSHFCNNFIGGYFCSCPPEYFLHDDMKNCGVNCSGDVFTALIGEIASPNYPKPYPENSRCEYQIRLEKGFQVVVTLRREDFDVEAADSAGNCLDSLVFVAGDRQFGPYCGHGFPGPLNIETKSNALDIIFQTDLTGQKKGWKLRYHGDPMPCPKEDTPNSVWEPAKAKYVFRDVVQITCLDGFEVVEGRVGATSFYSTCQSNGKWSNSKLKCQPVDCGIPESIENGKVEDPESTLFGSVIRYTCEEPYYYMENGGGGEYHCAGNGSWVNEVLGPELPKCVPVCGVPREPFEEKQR
Kind of assay: Human C1s enzyme assay. In kind it is biochemical. The conditions noted are these: human complement C1s enzyme 1.16 nM, substrate Z-L-Lys-SBzl, A405; read-out: IC50 (Stars). Summed up:
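Thioesterase activity followed colorimetrically (DTNB, A405, 30-s reads) using 100 μM Z-L-Lys-SBzl substrate. Enzyme, human serum-derived C1s at 1.16 nM final, was incubated with test compound for 5 min, room temperature, pH 7.5 Tris buffer with 1 M NaCl. Rate-versus-concentration data fitted by nonlinear regression for IC50.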

On to `O=C(Cn1c(-c2ccc(NC(=O)CO)cc2)ncc(NCc2ccc3oc4ccccc4c3c2)c1=O)NCc1cc2cnccc2[nH]1` [Compound 147, N-((1H-pyrrolo[3,2-c]pyridine-2-yl)methyl)-2-(5-((dibenzo[b,d]furan-2-ylmethyl)amino)-2-(4-(2-hydroxyacetamido)phenyl)-6-oxopyrimidin-1(6H)-yl)acetamide], for which the IC50 was < 100 nM.
In the case of `O=C(Cn1c(-c2ccc(N3CCCC3=O)cc2)ncc(NCc2ccc3oc4ccccc4c3c2)c1=O)NCc1cc2cnccc2[nH]1` [Compound 153, N-((1H-pyrrolo[3,2-c]pyridin-2-yl)methyl)-2-(5-((dibenzo [b,d]furan-2-ylmethyl)amino)-6-oxo-2-(4-(2-oxopyrrolidin-1-yl)phenyl)pyrimidin-1(6H)-yl)acetamide] it was < 100 nM.
On to `O=C(Cn1c(-c2ccc(OCCOc3ccc(F)cc3)cc2)ncc(NCc2ccc3oc4ccccc4c3c2)c1=O)NCc1cc2cnccc2[nH]1` [Compound 154, N-((1H-pyrrolo[3,2-c]pyridine-2-yl)methyl)-2-(5-((dibenzo[b,d]furan-2-ylmethyl)amino)-2-(4-(2-(4-fluorophenoxy)ethoxy)phenyl)-6-oxopyrimidin-1(6H)-yl)acetamide], for which the 50% inhibitory concentration (IC50) was < 100 nM.
The figure for `O=C(Cn1c(-c2ccc(OCc3ccccc3)cc2)ncc(NCc2ccc3oc4ccccc4c3c2)c1=O)NCc1cc2cnccc2[nH]1` [Compound 155, N-((1H-pyrrolo[3,2-c]pyridin-2-yl)methyl)-2-(2-(4-(benzyl-oxy)phenyl)-5-((dibenzo[b,d]furan-2-ylmethyl)amino)-6-oxopyrimidin-1(6H)-yl)acet-amide] is < 100 nM; for `O=C(Cn1c(-c2ccccc2)ncc(NC(=O)c2ccc(-c3ccc(OC(F)(F)F)cc3)cc2)c1=O)NCc1cc2cnccc2[nH]1` [Compound 164, N-(1-(2-(((1H-pyrrolo[3,2-c]pyridin-2-yl)methyl)amino)-2-oxoethyl)-6-oxo-2-phenyl-1,6-dihydropyrimidin-5-yl)-4′-(trifluoromethoxy)-[1,1′-biphenyl]-4-carboxamide] it is < 100 nM; for `O=C(Cn1c(-c2ccccc2)ncc(NC(=O)c2cccc(-c3ccccc3)c2)c1=O)NCc1cc2cnccc2[nH]1` [Compound 165, N-(1-(2-(((1H-pyrrolo[3,2-c]pyridin-2-yl)methyl)amino)-2-oxoethyl)-6-oxo-2-phenyl-1,6-dihydropyrimidin-5-yl)-[1,1′-biphenyl]-3-carboxamide] it is < 100 nM.
The figure for `O=C(Cn1c(-c2ccccc2)ncc(NC(=O)c2ccc(-c3ccccc3)cc2F)c1=O)NCc1cc2cnccc2[nH]1` [Compound 166, N-(1-(2-(((1H-pyrrolo[3,2-c]pyridine-2-yl)methyl)amino)-2-oxoethyl)-6-oxo-2-phenyl-1,6-dihydropyrimidin-5-yl)-3-fluoro-[1,1′-biphenyl]-4-carboxamide] is < 100 nM; for `O=C(Cn1c(-c2ccccc2)ncc(NC(=O)c2cccc(-c3nccs3)c2)c1=O)NCc1cc2cnccc2[nH]1` [Compound 167, N-(1-(2-(((1H-pyrrolo[3,2-c]pyridine-2-yl)methyl)amino)-2-oxoethyl)-6-oxo-2-phenyl-1,6-dihydropyrimidin-5-yl)-3-(thiazol-2-yl)benzamide] it is < 100 nM.
The figure for `O=C(Cn1c(-c2ccccc2)ncc(NC(=O)c2cnc(-c3ccccc3)[nH]2)c1=O)NCc1cc2cnccc2[nH]1` [Compound 168, N-(1-(2-(((1H-pyrrolo[3,2-c]pyridin-2-yl)methyl)amino)-2-oxoethyl)-6-oxo-2-phenyl-1,6-dihydropyrimidin-5-yl)-2-phenyl-1H-imidazole-5-carbox-amide] is < 100 nM; for `O=C(Cn1c(-c2ccccc2)ncc(NC(=O)c2ncc(-c3ccccc3)[nH]2)c1=O)NCc1cc2cnccc2[nH]1` [Compound 169, N-(1-(2-(((1H-pyrrolo[3,2-c]pyridin-2-yl)methyl)amino)-2-oxoethyl)-6-oxo-2-phenyl-1,6-dihydropyrimidin-5-yl)-5-phen-yl-1H-imidazole-2-carbox-amide] it is < 100 nM; for `O=C(Cn1c(-c2ccccc2)ncc(NC(=O)c2ncc(-c3ccccc3)s2)c1=O)NCc1cc2cnccc2[nH]1` [Compound 170, N-(1-(2-(((1H-pyrrolo[3,2-c]pyridin-2-yl)methyl)amino)-2-oxoethyl)-6-oxo-2-phenyl-1,6-dihydropyrimidin-5-yl)-5-phen-ylthiazole-2-carboxamide] it is < 100 nM.
As for `O=C(Cn1c(-c2ccccc2)ncc(NC(=O)c2ncc(-c3ccccc3)o2)c1=O)NCc1cc2cnccc2[nH]1` [Compound 171, N-(1-(2-(((1H-pyrrolo[3,2-c]pyridine-2-yl)methyl)amino)-2-oxoethyl)-6-oxo-2-phenyl-1,6-dihydropyrimidin-5-yl)-5-phenyloxazole-2-carboxamide], the IC50 is < 100 nM.
In the case of `O=C(Cn1c(-c2ccccc2)ncc(NC(=O)c2ccc(-c3nccs3)cc2)c1=O)NCc1cc2cnccc2[nH]1` [Compound 172, N-(1-(2-(((1H-pyrrolo[3,2-c]pyridine-2-yl)methyl)amino)-2-oxoethyl)-6-oxo-2-phenyl-1,6-dihydropyrimidin-5-yl)-4-(thiazol-2-yl)benzamide] it was < 100 nM.
In the case of `O=C(Cn1c(-c2ccccc2)ncc(NC(=O)c2ccc(-c3cnc[nH]3)cc2)c1=O)NCc1cc2cnccc2[nH]1` [Compound 174, N-(1-(2-(((1H-pyrrolo[3,2-c]pyridine-2-yl)methyl)amino)-2-oxoethyl)-6-oxo-2-phenyl-1,6-dihydropyrimidin-5-yl)-4-(1H-imidazol-5-yl)benzamide] it was < 100 nM; in that of `O=C(Cn1c(-c2ccccc2)ncc(NC(=O)c2ccc(-c3ncc[nH]3)cc2)c1=O)NCc1cc2cnccc2[nH]1` [Compound 175, N-(1-(2-(((1H-pyrrolo[3,2-c]pyridin-2-yl)methyl)amino)-2-oxoethyl)-6-oxo-2-phenyl-1,6-dihydropyrimidin-5-yl)-4-(1H-imidazol-2-yl)benzamide], < 100 nM.
As to `O=C(Cn1c(-c2ccccc2)cnc(NCc2ccc3oc4ccccc4c3c2)c1=O)NCc1cc2cnccc2[nH]1` [Compound 176, N-((1H-pyrrolo[3,2-c]pyridin-2-yl)methyl)-2-(3-((dibenzo [b,d]furan-2-ylmethyl)amino)-2-oxo-6-phenylpyrazin-1(2H)-yl)acetamide], the concentration for half-maximal inhibition (IC50) was < 100 nM.
In the case of `O=C(Cn1c(-c2ccccc2)cnc(NC(=O)c2ccc(Oc3ccccc3)cc2)c1=O)NCc1cc2cnccc2[nH]1` [Compound 177, N-(4-(2-(((1H-pyrrolo[3,2-c]pyridin-2-yl)methyl)amino)-2-oxoethyl)-3-oxo-5-phenyl-3,4-dihydropyrazin-2-yl)-4-phen-oxybenzamide] it was < 100 nM; in that of `O=C(Cn1c(-c2ccccc2)cnc(NC(=O)c2ccc3c(c2)-c2ccccc2C3(F)F)c1=O)NCc1cc2cnccc2[nH]1` [Compound 179, N-(4-(2-(((1H-pyrrolo[3,2-c]pyridin-2-yl)methyl)amino)-2-oxoethyl)-3-oxo-5-phenyl-3,4-dihydropyrazin-2-yl)-9,9-difluoro-9H-fluorene-3-carbox-amide], < 100 nM; in that of `CC1(c2ccc(CCCNc3cnc(-c4ccccc4)n(CC(=O)NCc4cc5cnccc5[nH]4)c3=O)cc2)COC1` [Compound 180, N-((1H-pyrrolo[3,2-c]pyridine-2-yl)methyl)-2-(5-((3-(4-(3-methyloxetan-3-yl)phenyl)propyl)amino)-6-oxo-2-phenylpyrimidin-1(6H)-yl)acetamide], < 100 nM.
In the case of `O=C(Cn1c(-c2ccccc2)ncc(N2Cc3ccccc3C2)c1=O)NCc1cc2cnccc2[nH]1` [Compound 184, N-((1H-pyrrolo[3,2-c]pyridine-2-yl)methyl)-2-(5-(isoindolin-2-yl)-6-oxo-2-phenylpyrimidin-1(6H)-yl)acetamide] it was > 1000 nM; in that of `CO[C@@H]1CO[C@H]2[C@@H]1OC[C@H]2Oc1ccc(-c2ncc(NCCCc3ccccc3)c(=O)n2CC(=O)NCc2cc3cnccc3[nH]2)cc1` [Compound 189, N-((1H-pyrrolo[3,2-c]pyridine-2-yl)methyl)-2-(2-(4-(((3R,3aR,6R,6aR)-6-methoxyhexahydrofuro[3,2-b]furan-3-yl)oxy)phenyl)-6-oxo-5-((3-phenylpropyl)amino)pyrimidin-1(6H)-yl)acetamide], < 100 nM.
In the case of `O=C(Cn1c(-c2ccccc2)ncc(NCCCO[C@@H]2CO[C@H]3[C@@H]2OC[C@H]3O)c1=O)NCc1cc2cnccc2[nH]1` [Compound 190, N-((1H-pyrrolo[3,2-c]pyridine-2-yl)methyl)-2-(5-((3-(((3R,3aR,6R,6aR)-6-hydroxyhexahydrofuro[3,2-b]furan-3-yl)oxy)propyl)amino)-6-oxo-2-phenylpyrimidin-1(6H)-yl)acetamide] it was < 100 nM.
